Experimental data as given in patent publication US9006450B2 (Boehringer Ingelheim International GmbH, priority 2010, dated 2015).

molecular target: T1, human ACC2 (Homo sapiens, UniProt O00763); test: ACC2 assay, spectrophotometric 384 well assay (NADH-linked, coupled lactate dehydrogenase/pyruvate kinase); format: biochemical; conditions: ACC2 assay, hACC2 construct lacking 128 N-terminal amino acids, 25° C., 340 nm; read-out: IC50
T1 construct: made in house; host or cells: insect cells (baculoviral expression system)
Method in brief: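 ADP output tracked via pyruvate kinase/lactate dehydrogenase NADH oxidation, slope at 340 nm over 15 min, 25° C, with 500 μM ATP and 200 μM each acetyl-CoA and NADH. Enzyme: insect-cell-expressed human ACC2, N-terminal 128 residues deleted; pH 7.5 Tris with citrate, KHCO3. IC50 from four-parameter regression versus vehicle and no-acetyl-CoA controls.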

T1 sequence (O00763 129-2458 limits assumed): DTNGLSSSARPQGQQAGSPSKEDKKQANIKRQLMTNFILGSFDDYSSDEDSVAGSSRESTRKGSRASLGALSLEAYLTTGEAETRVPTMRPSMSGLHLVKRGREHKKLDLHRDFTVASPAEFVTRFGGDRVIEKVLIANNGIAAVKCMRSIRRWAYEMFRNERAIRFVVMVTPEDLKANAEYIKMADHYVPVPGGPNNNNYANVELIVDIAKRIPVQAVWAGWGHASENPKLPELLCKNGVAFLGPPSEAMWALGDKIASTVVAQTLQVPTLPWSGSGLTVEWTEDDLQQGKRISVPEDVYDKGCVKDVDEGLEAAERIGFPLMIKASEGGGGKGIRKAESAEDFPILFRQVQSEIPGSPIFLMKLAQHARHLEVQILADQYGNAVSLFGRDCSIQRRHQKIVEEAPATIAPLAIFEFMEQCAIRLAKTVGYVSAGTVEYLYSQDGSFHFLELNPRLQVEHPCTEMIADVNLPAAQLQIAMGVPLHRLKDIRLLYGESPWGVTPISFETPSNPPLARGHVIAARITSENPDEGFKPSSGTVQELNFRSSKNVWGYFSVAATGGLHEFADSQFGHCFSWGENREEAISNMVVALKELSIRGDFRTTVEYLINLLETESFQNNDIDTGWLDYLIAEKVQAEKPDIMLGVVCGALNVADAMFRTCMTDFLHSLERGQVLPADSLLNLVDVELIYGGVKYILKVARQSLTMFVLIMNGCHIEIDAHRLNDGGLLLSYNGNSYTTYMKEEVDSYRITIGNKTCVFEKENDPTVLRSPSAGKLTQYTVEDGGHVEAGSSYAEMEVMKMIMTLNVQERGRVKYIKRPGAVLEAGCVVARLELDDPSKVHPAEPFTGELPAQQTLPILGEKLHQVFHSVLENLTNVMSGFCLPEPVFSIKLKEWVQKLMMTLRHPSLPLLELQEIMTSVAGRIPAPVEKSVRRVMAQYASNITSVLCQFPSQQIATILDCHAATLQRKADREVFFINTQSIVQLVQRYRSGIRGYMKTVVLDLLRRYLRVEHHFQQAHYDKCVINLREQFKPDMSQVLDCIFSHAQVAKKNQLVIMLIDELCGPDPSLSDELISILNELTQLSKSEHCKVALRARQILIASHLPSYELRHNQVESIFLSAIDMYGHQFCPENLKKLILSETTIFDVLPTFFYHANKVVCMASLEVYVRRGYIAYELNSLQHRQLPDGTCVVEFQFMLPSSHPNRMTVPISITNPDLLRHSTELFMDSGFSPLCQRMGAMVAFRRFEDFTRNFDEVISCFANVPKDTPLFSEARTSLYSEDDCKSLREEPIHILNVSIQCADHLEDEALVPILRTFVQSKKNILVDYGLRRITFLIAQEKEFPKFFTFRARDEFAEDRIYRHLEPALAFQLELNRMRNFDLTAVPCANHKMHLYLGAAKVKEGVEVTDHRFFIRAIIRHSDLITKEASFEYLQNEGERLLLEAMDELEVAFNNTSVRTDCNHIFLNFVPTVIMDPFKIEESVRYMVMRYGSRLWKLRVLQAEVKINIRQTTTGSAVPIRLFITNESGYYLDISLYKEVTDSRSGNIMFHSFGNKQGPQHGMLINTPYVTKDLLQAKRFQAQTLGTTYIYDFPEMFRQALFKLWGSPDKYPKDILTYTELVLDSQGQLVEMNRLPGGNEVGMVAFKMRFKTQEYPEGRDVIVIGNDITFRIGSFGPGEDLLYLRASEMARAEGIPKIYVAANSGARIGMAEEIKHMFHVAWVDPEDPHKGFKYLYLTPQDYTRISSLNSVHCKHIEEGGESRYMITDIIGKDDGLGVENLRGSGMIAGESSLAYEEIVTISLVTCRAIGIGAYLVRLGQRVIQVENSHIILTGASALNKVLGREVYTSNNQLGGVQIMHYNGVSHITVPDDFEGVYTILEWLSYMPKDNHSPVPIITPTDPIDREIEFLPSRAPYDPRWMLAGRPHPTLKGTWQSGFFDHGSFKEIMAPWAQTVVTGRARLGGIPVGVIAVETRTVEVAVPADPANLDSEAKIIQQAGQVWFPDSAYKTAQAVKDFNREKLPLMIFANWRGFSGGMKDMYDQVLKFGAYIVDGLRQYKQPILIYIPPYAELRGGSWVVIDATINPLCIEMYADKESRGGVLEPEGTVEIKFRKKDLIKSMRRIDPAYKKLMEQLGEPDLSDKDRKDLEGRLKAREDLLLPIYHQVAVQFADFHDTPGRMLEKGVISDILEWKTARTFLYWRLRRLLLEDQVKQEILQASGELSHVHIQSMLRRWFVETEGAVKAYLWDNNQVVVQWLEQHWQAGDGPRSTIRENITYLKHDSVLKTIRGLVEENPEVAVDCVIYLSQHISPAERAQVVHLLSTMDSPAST

Compound | IC50 [nM]
CC(=O)N[C@@H](C)c1ccc(C2CCN(c3cc(N4CC5CCCC5C4)ncn3)CC2)cc1 (some centres unmarked) [Example 11.77] | 280
CC(=O)N[C@@H](C)c1ccc(C2CCN(c3ccnc(N4CC5CCCC5C4)n3)CC2)cc1 (some centres unmarked) [Example 11.78] | 610
COC1CN(c2cc(N3CCC(c4ccc([C@H](C)NC(C)=O)cc4)CC3)ncn2)C1 [Example 11.79] | 4000
COC1CN(c2nccc(N3CCC(c4ccc([C@H](C)NC(C)=O)cc4)CC3)n2)C1 [Example 11.80] | 2300
COC1CCN(c2cc(N3CCC(c4ccc([C@H](C)NC(C)=O)cc4)CC3)ncn2)CC1 [Example 11.81] | 2300
CC(=O)N[C@@H](C)c1ccc(C2CCN(c3cc(N(C)Cc4ccccc4)ncn3)CC2)cc1 [Example 11.82] | 870
CC(=O)N[C@@H](C)c1ccc(C2CCN(c3ccnc(N(C)Cc4ccccc4)n3)CC2)cc1 [Example 11.83] | 410
CNc1nccc(N2CCC(c3ccc([C@H](C)NC(C)=O)cc3)CC2)n1 [Example 11.84] | 6500
CNc1cc(N2CCC(c3ccc([C@H](C)NC(C)=O)cc3)CC2)ncn1 [Example 11.85] | 13900
CC(=O)N[C@@H](C)c1ccc(C2CCN(c3ccnc(N(C)C4CC4)n3)CC2)cc1 [Example 11.86] | 770
CC(=O)N[C@@H](C)c1ccc(C2CCN(c3cc(N(C)C4CC4)ncn3)CC2)cc1 [Example 11.87] | 790
CC(=O)N[C@@H](C)c1ccc(C2CCN(c3ccnc(N4Cc5ccccc5C4)n3)CC2)cc1 [Example 11.88] | 1600
CC(=O)N[C@@H](C)c1ccc(C2CCN(c3cc(N4Cc5ccccc5C4)ncn3)CC2)cc1 [Example 11.89] | 760
CC(=O)N[C@@H](C)c1ccc(C2CCN(c3ccnc(N(C)CC4CC4)n3)CC2)cc1 [Example 11.90] | 230
CC(=O)N[C@@H](C)c1ccc(C2CCN(c3cc(N(C)CC4CC4)ncn3)CC2)cc1 [Example 11.91] | 440
CC(=O)N[C@@H](C)c1ccc(C2CCN(c3cc(N4CCC5(CC5)C4)ncn3)CC2)cc1 [Example 11.92] | 320
CC(=O)N[C@@H](C)c1ccc(C2CCN(c3ccnc(N4CCC5(CC5)C4)n3)CC2)cc1 [Example 11.93] | 550
CC(=O)N[C@@H](C)c1ccc(C2CCN(c3ccnc(NCC4CCC4)n3)CC2)cc1 [Example 11.94] | 1700
CC(=O)N[C@@H](C)c1ccc(C2CCN(c3cc(NCC4CCC4)ncn3)CC2)cc1 [Example 11.95] | 2000
CC(=O)N[C@@H](C)c1ccc(C2CCN(c3ccnc(N(C)C4CCCC4)n3)CC2)cc1 [Example 11.96] | 350
CC(=O)N[C@@H](C)c1ccc(C2CCN(c3cc(N(C)C4CCCC4)ncn3)CC2)cc1 [Example 11.97] | 330
CC(=O)N[C@@H](C)c1ccc(C2CCN(c3ccnc(N4CCC4)n3)CC2)cc1 [Example 11.98] | 660
CC(=O)N[C@@H](C)c1ccc(C2CCN(c3cc(N4CCC4)ncn3)CC2)cc1 [Example 11.99] | 2500
CC(=O)N[C@@H](C)c1ccc(C2CCN(c3ccnc(NCc4ccoc4)n3)CC2)cc1 [Example 11.100] | 5200

Compound | IC50 [nM]
CC(=O)N[C@@H](C)c1ccc(C2CCN(c3cc(NCc4ccoc4)ncn3)CC2)cc1 [Example 11.101] | 4000
CC(=O)N[C@@H](C)c1ccc(C2CCN(c3ccnc(NCCF)n3)CC2)cc1 [Example 11.102] | 3200
CC(=O)N[C@@H](C)c1ccc(C2CCN(c3cc(NC4CCCC4)ncn3)CC2)cc1 [Example 11.103] | 2600
CC(=O)N[C@@H](C)c1ccc(C2CCN(c3ccnc(N(C)C)n3)CC2)cc1 [Example 11.104] | 600
CC(=O)N[C@@H](C)c1ccc(C2CCN(c3cc(N(C)C)ncn3)CC2)cc1 [Example 11.105] | 1700
CC(=O)N[C@@H](C)c1ccc(C2CCN(c3ccnc(NCCC4CC4)n3)CC2)cc1 [Example 11.106] | 1600
CC(=O)N[C@@H](C)c1ccc(C2CCN(c3cc(NCCC4CC4)ncn3)CC2)cc1 [Example 11.107] | 2400
CC(=O)N[C@@H](C)c1ccc(C2CCN(c3cc(OCC4CC4)ncn3)CC2)cc1 [Example 11.108] | 110
CC(=O)N[C@@H](C)c1ccc(C2CCN(c3cc(OC4CCC4)ncn3)CC2)cc1 [Example 11.109] | 80
CC(=O)N[C@@H](C)c1ccc(C2CCN(c3ccnc(OC4CCC4)n3)CC2)cc1 [Example 11.110] | 230
CC(=O)N[C@@H](C)c1ccc(C2CCN(c3ccnc(NCC4CC4)n3)CC2)cc1 [Example 11.111] | 640
CC(=O)N[C@@H](C)c1ccc(C2CCN(c3cc(NCC4CC4)ncn3)CC2)cc1 [Example 11.112] | 1100
CC(=O)N[C@@H](C)c1ccc(C2CCN(c3cc(N4CCCC4)ncn3)CC2)cc1 [Example 11.113] | 200
CC(=O)N[C@@H](C)c1ccc(C2CCN(c3ccnc(N4CCCC4)n3)CC2)cc1 [Example 11.114] | 180
CC(=O)N[C@@H](C)c1ccc(C2CCN(c3ccnc(NC4CC4)n3)CC2)cc1 [Example 11.115] | 1500
CC(=O)N[C@@H](C)c1ccc(C2CCN(c3cc(O)ncn3)CC2)cc1 [Example 11.116] | 14500
CC(=O)N[C@@H](C)c1ccc(C2CCN(c3ccnc(Nc4cncnc4)n3)CC2)cc1 [Example 11.117] | 4300
CC(=O)N[C@@H](C)c1ccc(C2CCN(c3ccnc(Oc4ccccc4)n3)CC2)cc1 [Example 11.119] | 240
C[C@H](NC(=O)C1CC1)c1ccc(C2CCN(c3nc(Oc4ccc(F)cc4)ncc3F)CC2)cc1 [Example 11.120] | 280
C[C@H](NC(=O)C1CC1)c1ccc(C2CCN(c3nc(N4CCCC4)ncc3F)CC2)cc1 [Example 11.121] | 470
C[C@H](NC(=O)C1CC1)c1ccc(C2CCN(c3nc(N4CCCC4)ncc3C#N)CC2)cc1 [Example 11.122] | 1400
C[C@H](NC(=O)C1CC1)c1ccc(C2CCN(c3ncnc(N4CCCC4)c3F)CC2)cc1 [Example 11.123] | 200
C[C@H](NC(=O)C1CC1)c1ccc(C2CCN(c3nc(OC4CCC4)ncc3F)CC2)cc1 [Example 11.124] | 880
C[C@H](NC(=O)C1CC1)c1ccc(C2CCN(c3nc(N(C)CC4CC4)ncc3F)CC2)cc1 [Example 11.125] | 340

Compound | IC50 [nM]
C[C@H](NC(=O)C1CC1)c1ccc(C2CCN(c3nc(N(C)CC4CC4)ncc3C#N)CC2)cc1 [Example 11.126] | 810
C[C@H](NC(=O)C1CC1)c1ccc(C2CCN(c3ncc(C#N)c(N(C)CC4CC4)n3)CC2)cc1 [Example 11.127] | 3500
C[C@H](NC(=O)C1CC1)c1ccc(C2CCN(c3ncnc(N(C)CC4CC4)c3F)CC2)cc1 [Example 11.128] | 410
CC(C)Oc1ncc(F)c(N2CCC(c3ccc([C@H](C)NC(=O)C4CC4)cc3)CC2)n1 [Example 11.129] | 1300
CC(C)Oc1ncnc(N2CCC(c3ccc([C@H](C)NC(=O)C4CC4)cc3)CC2)c1F [Example 11.130] | 370
CC(=O)N[C@@H](C)c1ccc(C2CCN(c3ccnc(OCC4CC4)n3)CC2)cc1 [Example 11.131] | 1100
CC(=O)N[C@@H](C)c1ccc(C2CCN(c3cc(NC4CC4)ncn3)CC2)cc1 [Example 11.132] | 3000
CC(=O)NC(C)Cc1ccc(C2CCN(c3ccnc(N(C)C4CCCC4)n3)CC2)cc1 (centres unmarked) [Example 12.1, N-[2-(4-{1-[2-(Cyclopentyl-methyl-amino)-pyrimidin-4-yl]-piperidin-4-yl}-phenyl)-1-methyl-ethyl]-acetamide] | 610
CCCOc1ccc(N2CCC(c3ccc([C@H](C)NC(C)=O)cc3)CC2)c(C#N)c1 [Example 13.1, (S)—N-(1-{4-[1-(2-Cyano-4-propoxy-phenyl)-piperidin-4-yl]-phenyl}-ethyl)-acetamide] | 90
CC(=O)N[C@@H](C)c1ccc(C2CCN(c3ccc(OCC4CC4)cc3C#N)CC2)cc1 [Example 13.2] | 130
CCOc1ccc(N2CCC(c3ccc([C@H](C)NC(C)=O)cc3)CC2)c(C#N)c1 [Example 13.3] | 170
CCOc1ccc(N2CCC(c3ccc([C@H](C)NC(=O)NC)cc3)CC2)cc1 [Example 14.1, (S)-1-(1-{4-[1-(4-Ethoxy-phenyl)-piperidin-4-yl]-phenyl}-ethyl)-3-methyl-urea] | 470
CCNC(=O)N[C@@H](C)c1ccc(C2CCN(c3ccc(OCC)cc3)CC2)cc1 [Example 14.2] | 2700
CCOc1ccc(N2CCC(c3ccc([C@H](C)NC(=O)NC4CC4)cc3)CC2)cc1 [Example 14.3] | 1400
CCOc1ccc(N2CCC(c3ccc([C@H](C)NC(N)=O)cc3)CC2)cc1 [Example 14.5] | 1700
CCOc1ccc(N2CCC(c3ccc([C@H](C)NC(=O)N(C)C4CC4)cc3)CC2)cc1 [Example 14.50, (S)-1-Cyclopropyl-3-(1-{4-[1-(4-ethoxy-phenyl)-piperidin-4-yl]-phenyl}-ethyl)-1-methylurea] | 3800
CCOc1ccc(N2CCC(c3ccc([C@H](C)NC(=O)N(C)CC)cc3)CC2)cc1 [Example 14.51] | 610
CCOc1ccc(N2CCC(c3ccc([C@H](C)NC(=O)N(C)C(C)C)cc3)CC2)cc1 [Example 14.53] | 4900
CCCN(C)C(=O)N[C@@H](C)c1ccc(C2CCN(c3ccc(OCC)cc3)CC2)cc1 [Example 14.54] | 1100
CCOc1ccc(N2CCC(c3ccc([C@H](C)NC(=O)Nc4cccnc4)cc3)CC2)cc1 [Example 14.55] | 1700
CCOc1ccc(N2CCC(c3ccc([C@H](C)NC(=O)Nc4ncccn4)cc3)CC2)cc1 [Example 14.56] | 14700
CCOc1ccc(N2CCC(c3ccc([C@H](C)NC(=O)Nc4nccs4)cc3)CC2)cc1 [Example 14.57] | 14200
CCOc1ccc(N2CCC(c3ccc([C@H](C)NC(=O)Nc4ccnnc4)cc3)CC2)cc1 [Example 14.58] | 7100
